From US5593970A, “Heterocyclic anthracycline analogs” (priority 1994, dated 1997)

Experiments:
MCF7/ADR = assay: Soft agar colony formation disk diffusion assay; type: cell-based, human
Outline: (§1)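 Plate cells in an upper 0.4% agar layer over a 0.8% agar base, then add compound on a 6.5 mm disk one-third from the dish edge. Incubate 10–20 days at 37 °C, 5% CO2. Measure the colony-free zone around the disk with a calibrated micrometer.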

MCF7 = assay: Soft agar colony formation disk diffusion assay; type: cell-based, human
Outline: as §1

LS180 = assay: Soft agar colony formation disk diffusion assay; type: cell-based, human
Outline: as §1

SKVLB = assay: Microculture tetrazolium assay; type: cell-based; settings: for VLB/OV3: IC50 ratio SKVLB/SKOV3; for IC50: SKVLB, read-out: IC50
HT29 = assay: Soft agar colony formation disk diffusion assay; type: cell-based, human
Excerpt: A more elaborate version of this fundamental assay, the soft agar colony formation disk diffusion assay was used. […] The effect of the test drug against tumoral cells could be measured by its inhibitory capacity against colony formation after the delivery of the compound, in different concentrations on an filter disk(4). A modified technique of this assay was used in order to investigate the antiproliferative activity of candidate compounds. Tumoral cells from solid tumors and ascitic lines were plated separately in a two layer agar matrix. Cell lines to be tested were suspended in an upper layer of 0.4% Noble agar (Difco#00142-01) in RPMI-1066 (Gibco#3201875) at a yield varying between 10^4 to 2×10^5 cells per 60 mm Petri dish. Plating efficiency was determined for each line in order to achieve an optimal number of colonies per dish. […] The bottom layer consisted of 0.8% Noble agar, 0.8% Tryptic Soy Broth (difco#0037001)in CMRL-1066/Fischer's. The bottom layers were used within 2 and 9 days of preparation. Plated dishes (bottom layer of agar, upper layer of cells and administered drug were incubated in humidified atmosphere at 37° C., 5% CO2 for 10-20 days depending upon the time necessary to observe adequate colonies (defined as a cell aggregate of more than 50 cells) both control and drug inhibited. Drugs were administered on a paper filter disk (Whatman No. 1) of 6.5 mm diameter placed on the upper layer at 1/3 distance from the edge of the dish. The anti-clonogenic activity of the compounds was measured as the zone of inhibition from the disk edge to the most proximal colonies. This zone of inhibition was checked on an inverted microscope (40×) and was measured with a micrometer mounted in the eyepiece. The ocular micrometer was calibrated with a stage micrometer set for a particular combination of ocular and objective lenses. […] We made a modification of the initial technique by not plating a solid tumor and a leukemia simultaneously in the same Petri dish. […] HUMAN TUMORS. […] LS180 (13) and BE1(14) were obtained from the Oncology Dept. of the Montreal General Hospital. […] Cell lines were routinely passaged twice a week by trypsinization and maintained in 25, or 75-sq. cm Falcon Plastic flasks at 37° C., 5% CO2 in humidified atmosphere. Both compounds were dissolved in DMSO (1 mg/100 ul) and brought to final volume (250 ul) with Millipore deionized sterile water. Further dilutions were made with […] volume of 25 ul of freshly prepared solution was placed on the filter disk and allowed to dry.

| Compound | zone of inhibition (MCF7/ADR; 10 μg/DISK) | zone of inhibition (MCF7/ADR; 100 μg/DISK) | zone of inhibition (MCF7; 10 μg/DISK) | zone of inhibition (MCF7; 100 μg/DISK) | zone of inhibition (LS180; 10 μg/DISK) | zone of inhibition (LS180; 100 μg/DISK) | VLB/OV3 (SKVLB) | IC50 (SKVLB) | zone of inhibition (HT29; 10 μg/DISK) | zone of inhibition (HT29; 100 μg/DISK) | cross resistance with adriamycin, MCF7/ADR vs MCF7 (MCF7/ADR) |
| --- | --- | --- | --- | --- | --- | --- | --- | --- | --- | --- | --- |
| 3-(2-acetoxy-1-propeneketal)aceto-6-acetoxy-1-hydroxy-1,2,3,4-tetrahydro-(2-oxygen)naphtacene-5,12-dione and 3-(2-acetoxy-1-propeneketal)-aceto-11-acetoxy-1-hydroxy-1,2,3,4-tetrahydro-(2-oxygen)naphtacene-5,12-dione [BCH-710] | 0 Zone Units | 106.0 ± 21.9 Zone Units | 0 Zone Units | 24.0 ± 8.4 Zone Units | 48.5 ± 26.1 Zone Units | 110.0 ± 50.2 Zone Units | 1.30 | 5.19 µM | 30.0 ± 8.4 Zone Units | 69.0 ± 30.0 Zone Units |  |
| 3-(2-hydroxy)aceto-6-hydroxy-1,2,3,4-tetrahydro-(2-oxygen)naphthacene-5,12-dione and 3-(2-hydroxy)aceto-11-hydroxy-1,2,3,4-tetrahydro-(2-oxygen)naphthacene-5,12-dione [BCH-694] | 0 Zone Units | 161.5 ± 13.4 Zone Units | 61.0 ± 0.0 Zone Units | 149.4 ± 12.9 Zone Units | 48.8 ± 17.2 Zone Units | 153.2 ± 1.0 Zone Units | 2.18 | 17.9 µM | 30.5 ± 8.6 Zone Units | 143.3 ± 30.1 Zone Units |  |
| 3-Carbomethoxy-1,11-dihydroxy-1,2,3,4-tetrahydro-(2-oxygen)naphthacene-5,12-dione 3-Carbomethoxy-1,6-dihydroxy-1,2,3,4-tetrahydro-(2-oxygen)naphthacene-5,12-dione [BCH-711] | 24.4 ± 8.5 Zone Units | 222.4 ± 159.2 Zone Units | 0 Zone Units | 244.0 ± 17.2 Zone Units | 18.0 ± 16.9 Zone Units | 182.5 ± 43.1 Zone Units | 1.22 | 13.5 µM | 27.0 ± 4.2 Zone Units | 91.5 ± 43.1 Zone Units |  |
| 3-carbomethoxy-6-hydroxy-1,2,3,4-tetrahydro-(2-sulfur)naphthacene-5,12-dione and 3-carbomethoxy-11-hydroxy-1,2,3,4-tetrahydro(2-sulfur)naphthacene-5,12-dione [BCH-693] | 24.4 ± 17.2 Zone Units | 67.1 ± 25.8 Zone Units | 0 Zone Units | 67.1 ± 34.5 Zone Units | 0 Zone Units | 39.6 ± 4.3 Zone Units | 1.06 | 44.2 µM | 0 Zone Units | 39.6 ± 4.3 Zone Units |  |
| CCOC(=O)[C@@H]1CC2=C(C(=O)c3c(c(O)c4ccccc4c3OC(C)=O)C2=O)[C@@H](O)O1 (mixture of isomers) [BCH-658, (1S,3S) and (1R,3R) Ethyl[11-acetoxy-1,6-dihydroxy-5,12-dioxo-3,4,5,12-tetrahydroanthraceno (2,3-c)pyran-3-yl]formate] | 0 Zone Units | 0 Zone Units | 0 Zone Units |  | 48.8 ± 34.5 Zone Units | 164.7 ± 25.8 Zone Units |  | > 100 µM | 0 Zone Units | 0 Zone Units |  |
| CCOC(=O)C1CC2=C(CO1)C(=O)c1cc3ccccc3c(O)c1C2=O (stereo not shown) [BCH-653, Ethyl(6 and 11 hydroxy-5,12-dioxo-3,4,5,12-tetrahydro-anthraceno[2,3-c]pyran-3-yl)]formate] |  | 91.5 ± 43.1 Zone Units |  | 106.1 ± 21.5 Zone Units |  | 35.5 ± 0.7 Zone Units |  |  |  | 42.7 ± 8.6 Zone Units |  |
| CCOC(=O)[C@@H]1CC2=C(C(=O)c3cc4ccccc4c(O)c3C2=O)[C@@H](O[C@H]2C[C@H](NC(=O)C(F)(F)F)[C@H](O)[C@H](C)O2)O1 [BCH-681, (1'S,1R,3S)Ethyl[6-hydroxy-5,12-dioxo-1-(3'-trifuloroacetamido-1-daunosaminyl)-3,4,5,12-tetrahydroanthraceno(2,3-C)pyran-3-yl]formate] | 82.7 ± 30.1 Zone Units | 326.3 ± 56.0 Zone Units |  |  |  |  | 1.16 | 6.99 µM | 106.7 ± 21.5 Zone Units | 213.5 ± 43.1 Zone Units |  |
| CCOC(=O)[C@H]1CC2=C(C(=O)c3cc4ccccc4c(O)c3C2=O)[C@H](O[C@H]2C[C@H](NC(=O)C(F)(F)F)[C@H](O)[C@H](C)O2)O1 [BCH-684, (1'S,1S,3R)Ethyl[6-hydroxy-5,12-dioxo-1-(3'-trifluoroacetamido-1-daunosaminyl)-3,4,5,12-tetrahydroanthraceno(2,3-C)pyran-3-yl]formate] | 161.6 ± 30.1 Zone Units | 437.1 ± 30.1 Zone Units | 115.9 ± 8.6 Zone Units | 225.7 ± 25.8 Zone Units |  |  | 1.52 | 6.38 µM | 137.2 ± 21.5 Zone Units | 170.8 ± 86.2 Zone Units | more active in the adriamycin resistant cell line |
| C=CC1CC2=C(C(=O)c3cc4ccccc4c(O)c3C2=O)C(OC)O1 (stereo not shown) [BCH-712, 6-hydroxy-1-methoxy-1,2,3,4-tetrahydro-3-vinyl-(2-oxygen) naphthacene-5,12-dione] | 24.0 ± 8.4 Zone Units | 79.0 ± 8.4 Zone Units | 0 Zone Units | 54.5 ± 9.1 Zone Units | 9.0 ± 4.2 Zone Units | 158.0 ± 34.6 Zone Units |  |  | 0 Zone Units | 55.0 ± 8.4 Zone Units | more active in the adriamycin resistant cell line |
| Methyl(11-hydroxy-5,12-dioxo-3,4,5,12-tetrahydroanthraceno[2,3-c]pyran-3-yl)ketone and Methyl(5-hydroxy-5,12-dioxo-3,4,5,12-tetrahydroanthraceno[2,3-c]pyran-3-yl)ketone [BCH-687] | 61.0 ± 6.1 Zone Units | 140.0 ± 32.3 Zone Units | 71.1 ± 9.3 Zone Units | 152.5 ± 50.0 Zone Units | 152.5 ± 30.5 Zone Units | 233.8 ± 17.6 Zone Units |  |  | 61.0 ± 12.2 Zone Units | 150.4 ± 25.3 Zone Units | lack of cross resistance with adriamycin |
